Data reported in the supplement of paper PMC12463676, “Small-molecule dissolution of stress granules by redox modulation benefits ALS models” (Nature Chemical Biology, 2025).

What was measured:
lipoamide = compound: NC(=O)CCCCC1CCSS1 [lipoamide]; assay: thermal stability z-score vs DMSO; higher = more thermally stabilized by treatment; conditions: HeLa, lipoamide concentration 100 µM
Experimental: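 Cellular thermal proteome profiling in HeLa cells. Cells were treated with 100 µM lipoamide for 1 h, with or without 1 mM arsenate for a further 1 h, then heated to ten temperatures (37-66.3 °C), and soluble protein was quantified by TMT mass spectrometry relative to 0.1% DMSO controls. The thermal stability score (sum of log2 fold changes minus the abundance score) was transformed to a z-score; mean of n = 3 experiments.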

potassium arsenate = compound: O=[As]([O-])(O)O.[K+] [potassium arsenate]; assay: as above; conditions: HeLa; arsenate concentration 1 mM
Experimental: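 Cellular thermal proteome profiling in HeLa cells treated with 1 mM arsenate for 1 h (DMSO pretreatment), heated to ten temperatures (37-66.3 °C). Soluble protein was quantified by TMT mass spectrometry relative to DMSO controls; the thermal stability score was transformed to a z-score; mean of n = 3 experiments.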

[1] = arsenate co-treatment: 1 mM arsenate 1 h
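Further: each temperature applied for 3 min, abundance score taken as mean log2 fold change at the two lowest temperatures, z-score obtained by mean subtraction and division by SD.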

Chain of UniProt P83436 (P83436 whole entry): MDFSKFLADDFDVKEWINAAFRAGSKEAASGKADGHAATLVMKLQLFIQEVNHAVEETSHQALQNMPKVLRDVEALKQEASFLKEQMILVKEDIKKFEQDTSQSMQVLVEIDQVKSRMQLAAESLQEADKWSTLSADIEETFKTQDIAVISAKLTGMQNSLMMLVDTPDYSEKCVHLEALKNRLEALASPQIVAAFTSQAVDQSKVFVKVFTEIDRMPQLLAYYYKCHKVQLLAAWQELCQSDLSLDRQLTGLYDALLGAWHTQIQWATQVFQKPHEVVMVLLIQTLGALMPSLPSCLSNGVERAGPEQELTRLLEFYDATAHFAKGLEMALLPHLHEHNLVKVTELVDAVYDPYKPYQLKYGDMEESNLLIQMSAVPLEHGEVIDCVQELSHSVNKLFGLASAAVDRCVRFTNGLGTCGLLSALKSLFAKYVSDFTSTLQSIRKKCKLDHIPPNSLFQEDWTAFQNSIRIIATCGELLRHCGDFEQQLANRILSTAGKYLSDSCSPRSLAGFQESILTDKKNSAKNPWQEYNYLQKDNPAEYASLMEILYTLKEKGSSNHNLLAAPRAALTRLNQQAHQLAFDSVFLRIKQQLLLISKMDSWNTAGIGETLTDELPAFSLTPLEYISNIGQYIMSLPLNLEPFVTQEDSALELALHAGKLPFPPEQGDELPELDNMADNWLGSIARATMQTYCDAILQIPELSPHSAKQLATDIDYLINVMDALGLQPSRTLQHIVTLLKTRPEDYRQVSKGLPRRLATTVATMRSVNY
Chain of UniProt Q96MW5 (Q96MW5 whole entry): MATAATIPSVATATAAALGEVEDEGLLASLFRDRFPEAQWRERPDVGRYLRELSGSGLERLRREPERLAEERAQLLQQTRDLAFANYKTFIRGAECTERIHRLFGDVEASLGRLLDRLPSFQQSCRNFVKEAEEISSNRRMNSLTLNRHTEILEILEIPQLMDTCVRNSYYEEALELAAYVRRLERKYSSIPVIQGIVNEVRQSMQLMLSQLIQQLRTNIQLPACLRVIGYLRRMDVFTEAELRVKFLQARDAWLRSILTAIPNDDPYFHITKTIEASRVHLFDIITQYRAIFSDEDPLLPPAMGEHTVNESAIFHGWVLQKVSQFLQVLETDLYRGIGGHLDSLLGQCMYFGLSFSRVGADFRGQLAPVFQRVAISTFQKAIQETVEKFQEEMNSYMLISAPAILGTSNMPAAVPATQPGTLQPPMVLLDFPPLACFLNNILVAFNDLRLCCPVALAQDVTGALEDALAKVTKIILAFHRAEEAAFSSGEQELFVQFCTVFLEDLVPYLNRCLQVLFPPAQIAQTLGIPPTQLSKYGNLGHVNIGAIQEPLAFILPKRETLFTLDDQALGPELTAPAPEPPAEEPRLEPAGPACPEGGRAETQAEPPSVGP
Chain of UniProt Q9UBW8 (Q9UBW8 whole entry): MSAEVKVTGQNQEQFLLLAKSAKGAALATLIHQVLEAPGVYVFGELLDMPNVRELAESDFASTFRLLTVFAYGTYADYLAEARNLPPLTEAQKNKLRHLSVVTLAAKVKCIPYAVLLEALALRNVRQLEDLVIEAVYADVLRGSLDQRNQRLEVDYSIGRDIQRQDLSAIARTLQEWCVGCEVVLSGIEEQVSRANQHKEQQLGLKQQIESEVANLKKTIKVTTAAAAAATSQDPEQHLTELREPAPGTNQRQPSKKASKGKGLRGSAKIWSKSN
Chain of UniProt Q9P000 (Q9P000 whole entry): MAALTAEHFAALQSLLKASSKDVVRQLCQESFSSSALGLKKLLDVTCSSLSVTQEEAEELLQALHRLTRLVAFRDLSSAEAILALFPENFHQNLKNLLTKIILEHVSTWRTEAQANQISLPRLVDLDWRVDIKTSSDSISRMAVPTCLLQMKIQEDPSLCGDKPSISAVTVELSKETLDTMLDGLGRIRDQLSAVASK
Chain of UniProt Q9UBF2 (Q9UBF2 whole entry): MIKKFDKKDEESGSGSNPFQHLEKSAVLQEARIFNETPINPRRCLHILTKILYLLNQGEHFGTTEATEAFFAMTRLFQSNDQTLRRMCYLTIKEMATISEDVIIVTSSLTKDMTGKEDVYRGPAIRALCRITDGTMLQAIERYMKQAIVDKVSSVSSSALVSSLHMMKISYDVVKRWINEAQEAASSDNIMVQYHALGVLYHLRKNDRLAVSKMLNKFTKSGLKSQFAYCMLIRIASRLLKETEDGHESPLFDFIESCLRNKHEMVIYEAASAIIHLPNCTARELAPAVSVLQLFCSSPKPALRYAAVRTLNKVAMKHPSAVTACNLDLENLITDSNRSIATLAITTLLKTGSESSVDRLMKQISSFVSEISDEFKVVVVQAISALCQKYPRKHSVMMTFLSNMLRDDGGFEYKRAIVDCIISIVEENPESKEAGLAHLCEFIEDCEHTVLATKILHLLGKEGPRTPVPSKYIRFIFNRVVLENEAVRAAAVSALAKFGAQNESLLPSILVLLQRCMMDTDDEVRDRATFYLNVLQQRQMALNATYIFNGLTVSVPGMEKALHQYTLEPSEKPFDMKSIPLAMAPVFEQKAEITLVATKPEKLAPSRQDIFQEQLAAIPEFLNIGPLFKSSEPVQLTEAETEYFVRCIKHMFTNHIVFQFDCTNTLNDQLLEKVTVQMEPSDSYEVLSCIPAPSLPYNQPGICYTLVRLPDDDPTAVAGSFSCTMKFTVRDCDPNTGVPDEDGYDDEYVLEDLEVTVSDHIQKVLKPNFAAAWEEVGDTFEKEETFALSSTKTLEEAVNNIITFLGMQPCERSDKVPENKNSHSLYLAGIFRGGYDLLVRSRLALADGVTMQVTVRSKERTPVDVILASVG
Chain of UniProt P53621 (P53621 whole entry): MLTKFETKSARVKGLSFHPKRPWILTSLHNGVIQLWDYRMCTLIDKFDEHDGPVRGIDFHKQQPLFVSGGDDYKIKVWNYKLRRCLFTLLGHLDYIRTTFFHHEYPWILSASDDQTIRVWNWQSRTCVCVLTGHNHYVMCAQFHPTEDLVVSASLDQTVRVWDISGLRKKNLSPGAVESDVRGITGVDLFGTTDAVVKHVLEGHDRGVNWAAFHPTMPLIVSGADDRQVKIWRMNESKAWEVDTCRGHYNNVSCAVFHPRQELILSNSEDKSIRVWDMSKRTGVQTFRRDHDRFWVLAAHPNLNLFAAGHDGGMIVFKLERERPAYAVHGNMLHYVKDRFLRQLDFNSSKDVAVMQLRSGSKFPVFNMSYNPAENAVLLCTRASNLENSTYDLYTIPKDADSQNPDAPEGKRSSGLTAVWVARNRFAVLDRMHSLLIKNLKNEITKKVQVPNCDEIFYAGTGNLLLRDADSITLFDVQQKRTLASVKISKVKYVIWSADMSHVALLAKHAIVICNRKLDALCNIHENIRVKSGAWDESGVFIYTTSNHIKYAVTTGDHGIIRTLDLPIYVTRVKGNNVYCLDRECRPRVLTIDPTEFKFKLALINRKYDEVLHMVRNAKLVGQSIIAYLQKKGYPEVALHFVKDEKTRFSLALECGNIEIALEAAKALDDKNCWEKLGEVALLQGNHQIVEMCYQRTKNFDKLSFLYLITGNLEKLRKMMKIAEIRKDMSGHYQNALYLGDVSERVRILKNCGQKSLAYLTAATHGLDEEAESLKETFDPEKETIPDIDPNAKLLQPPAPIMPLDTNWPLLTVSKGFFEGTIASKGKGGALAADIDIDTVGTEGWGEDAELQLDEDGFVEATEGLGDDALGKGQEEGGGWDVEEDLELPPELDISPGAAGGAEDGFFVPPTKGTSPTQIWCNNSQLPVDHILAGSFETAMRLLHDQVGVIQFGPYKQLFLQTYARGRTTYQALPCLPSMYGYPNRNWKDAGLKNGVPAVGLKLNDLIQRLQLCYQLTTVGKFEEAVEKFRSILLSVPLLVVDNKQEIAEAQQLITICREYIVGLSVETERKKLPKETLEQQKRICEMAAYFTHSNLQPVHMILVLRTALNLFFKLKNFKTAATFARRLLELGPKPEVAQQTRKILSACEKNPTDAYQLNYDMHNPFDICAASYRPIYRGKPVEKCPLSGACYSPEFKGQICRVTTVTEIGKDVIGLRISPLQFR
Chain of UniProt Q86VU5 (Q86VU5 whole entry): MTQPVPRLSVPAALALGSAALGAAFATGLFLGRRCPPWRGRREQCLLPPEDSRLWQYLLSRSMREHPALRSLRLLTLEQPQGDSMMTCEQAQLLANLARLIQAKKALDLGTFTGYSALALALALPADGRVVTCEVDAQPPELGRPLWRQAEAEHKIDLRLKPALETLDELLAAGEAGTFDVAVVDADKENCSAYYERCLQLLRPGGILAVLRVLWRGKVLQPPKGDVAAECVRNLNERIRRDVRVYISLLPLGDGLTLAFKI
Chain of UniProt P61923 (P61923 whole entry): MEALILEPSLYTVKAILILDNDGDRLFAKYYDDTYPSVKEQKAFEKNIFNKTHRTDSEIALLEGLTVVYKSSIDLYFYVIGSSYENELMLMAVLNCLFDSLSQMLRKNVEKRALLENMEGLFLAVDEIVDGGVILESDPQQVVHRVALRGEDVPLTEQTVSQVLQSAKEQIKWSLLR
Chain of UniProt Q9H0A8 (Q9H0A8 whole entry): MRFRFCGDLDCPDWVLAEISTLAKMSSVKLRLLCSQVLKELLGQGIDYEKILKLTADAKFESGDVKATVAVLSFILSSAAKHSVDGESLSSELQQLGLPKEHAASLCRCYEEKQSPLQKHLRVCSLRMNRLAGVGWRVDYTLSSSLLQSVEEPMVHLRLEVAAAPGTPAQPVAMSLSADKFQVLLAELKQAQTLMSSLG
Chain of UniProt O14579 (O14579 whole entry): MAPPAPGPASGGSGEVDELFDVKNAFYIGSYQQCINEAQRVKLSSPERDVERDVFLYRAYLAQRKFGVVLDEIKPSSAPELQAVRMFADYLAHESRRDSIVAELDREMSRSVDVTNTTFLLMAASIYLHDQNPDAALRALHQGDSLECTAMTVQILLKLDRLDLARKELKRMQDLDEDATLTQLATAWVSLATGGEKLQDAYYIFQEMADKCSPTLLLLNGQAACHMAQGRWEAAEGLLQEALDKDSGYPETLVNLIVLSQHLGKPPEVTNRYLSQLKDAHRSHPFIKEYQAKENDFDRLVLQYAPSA

Target	thermal stability z-score (lipoamide; [1])	thermal stability z-score (lipoamide; arsenate co-treatment: none)	thermal stability z-score (potassium arsenate)
COG5 (UniProt Q9UP83)	-0.297	-0.0509	0.793
COG6 (UniProt Q9Y2V7)	-0.00556	-0.0575	-0.012
COG7 (UniProt P83436)	-0.825	-0.928	0.224
COG8 (UniProt Q96MW5)	0.022	0.151	0.149
COL4A2 (UniProt P08572)	-1.15	-0.802	0.138
COL4A3BP (UniProt Q9Y5P4)	-0.466	0.862	0.568
COL5A1 (UniProt P20908)	-1.41	-1.55	0.375
COL5A2 (UniProt P05997)	-3.8	-3.3	1.12
COL12A1 (UniProt Q99715)	-3.01	-2.92	0.59
COLGALT1 (UniProt Q8NBJ5)	-4.85	-4.14	0.633
COMMD1 (UniProt Q8N668)	0.0519	0.0285	-0.333
COMMD2 (UniProt Q86X83)	0.00791	-0.169	-0.00764
COMMD3 (UniProt Q9UBI1)	-0.911	-0.0897	-1.12
COMMD4 (UniProt Q9H0A8)	-0.113	-0.32	-0.322
COMMD5 (UniProt Q9GZQ3)	-0.212	0.573	0.0506
COMMD9 (UniProt Q9P000)	-0.221	-0.146	-0.0631
COMMD10 (UniProt Q9Y6G5)	0.107	0.18	0.307
COMT (UniProt P21964)	0.121	0.102	-0.525

Target	thermal stability z-score (lipoamide; [1])	thermal stability z-score (lipoamide; arsenate co-treatment: none)	thermal stability z-score (potassium arsenate)
COMTD1 (UniProt Q86VU5)	-0.328	-1.94	-0.237
COPA (UniProt P53621)	-0.0346	0.0865	0.594
COPB1 (UniProt P53618)	0.189	0.0616	0.367
COPB2 (UniProt P35606)	0.165	-0.0303	0.238
COPE (UniProt O14579)	0.165	0.681	0.0279
COPG1 (UniProt Q9Y678)	0.243	-0.177	-0.32
COPG2 (UniProt Q9UBF2)	-0.16	-0.253	0.0479
COPRS (UniProt Q9NQ92)	0.227	0.791	-0.822
COPS2 (UniProt P61201)	0.538	-0.0451	0.0289
COPS3 (UniProt Q9UNS2)	0.508	0.201	0.344
COPS4 (UniProt Q9BT78)	0.298	-0.0548	-0.453
COPS5 (UniProt Q92905)	0.384	-0.0535	0.276
COPS6 (UniProt Q7L5N1)	0.0852	-0.522	-0.236
COPS7A (UniProt Q9UBW8)	0.334	0.0778	-0.0728
COPS7B (UniProt Q9H9Q2)	-0.144	-0.241	-0.241
COPS8 (UniProt Q99627)	0.0678	-0.053	0.171
COPZ1 (UniProt P61923)	-0.374	0.0476	0.734
COQ3 (UniProt Q9NZJ6)	0.083	0.759	1.9
